Assay results: ChEMBL document CHEMBL4619702, “Inhibitors of the Zika virus protease NS2B-NS3” (Bioorg Med Chem Lett, 2020)
Blank lines part the entries; values can stand above or below the compound they belong to. Where a SMILES comes first, the peptide text is derived from it. The star is where a group is joined. NHBn = c1ccc(CN*)cc1

Legend:
Nonstructural protein 3 [1] = target: T1, Nonstructural protein 3 (Zika virus, UniProt A0A024AXB9); experiment: (§1) Inhibition of Zika virus NS2B-NS3 protease by cell based assay
Nonstructural protein 3 [2] = target: T1, Nonstructural protein 3; experiment: Inhibition of Zika virus NS2B-NS3 protease
Nonstructural protein 3 [3] = target: T1, Nonstructural protein 3; experiment: Binding affinity to N-terminal His-tagged Zika virus NS2B-NS3 protease (1 to 187 residues) using Boc-Gly-Arg-Arg-AMC as substrate
Nonstructural protein 3 [4] = target: T1, Nonstructural protein 3; experiment: Inhibition of N-terminal His-tagged Zika virus NS2B-NS3 protease (1 to 187 residues) using Boc-Gly-Arg-Arg-AMC as substrate
[5] = Allosteric inhibition of Flavivirus NS2B-NS3 protease
[6] = target: T2, Nonstructural protein 3 (Zika virus) (UniProt A0A024AXB9); experiment: as §1
Genome polyprotein [7] = target: T3, Genome polyprotein (West Nile virus, UniProt P06935); experiment: Binding affinity to West Nile virus NS2B-NS3 protease
T3 sequence (P06935 1371-1501 limits assumed): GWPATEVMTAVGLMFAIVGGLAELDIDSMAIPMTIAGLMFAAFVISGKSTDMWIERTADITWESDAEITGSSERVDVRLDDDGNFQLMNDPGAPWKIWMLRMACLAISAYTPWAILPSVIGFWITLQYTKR
T3 sequence (P06935 1502-2120 limits assumed): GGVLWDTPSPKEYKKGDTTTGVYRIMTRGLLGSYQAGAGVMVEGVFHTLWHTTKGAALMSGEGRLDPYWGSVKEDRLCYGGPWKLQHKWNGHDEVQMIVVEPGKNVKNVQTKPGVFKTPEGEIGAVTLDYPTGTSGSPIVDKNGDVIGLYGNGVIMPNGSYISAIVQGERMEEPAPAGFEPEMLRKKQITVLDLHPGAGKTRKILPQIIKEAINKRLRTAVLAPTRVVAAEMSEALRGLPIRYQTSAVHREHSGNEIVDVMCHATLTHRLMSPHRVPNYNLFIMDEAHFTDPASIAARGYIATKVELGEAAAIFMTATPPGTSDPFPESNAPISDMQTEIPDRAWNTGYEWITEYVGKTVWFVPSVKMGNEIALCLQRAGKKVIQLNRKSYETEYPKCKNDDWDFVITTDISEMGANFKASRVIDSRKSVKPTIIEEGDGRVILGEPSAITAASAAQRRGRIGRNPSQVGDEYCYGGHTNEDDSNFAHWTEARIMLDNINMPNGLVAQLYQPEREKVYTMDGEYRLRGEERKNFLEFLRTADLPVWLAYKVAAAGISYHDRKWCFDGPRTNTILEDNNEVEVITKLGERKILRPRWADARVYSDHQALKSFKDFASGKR

Genome polyprotein [8] = target: T3, Genome polyprotein; experiment: Inhibition of West Nile virus NS2B-NS3 protease
Nonstructural protein 3 [9] = target: T1, Nonstructural protein 3; experiment: Binding affinity to Zika virus NS2B-NS3 protease
[10] = target: T2, Nonstructural protein 3 (Zika virus); experiment: Inhibition of Zika virus NS2B-NS3 protease assessed as as ratio of K(obs)/[I] using biotin-tagged peptide (P4-P1) as substrate
[11] = Allosteric inhibition of Flavivirus NS2B-NS3 protease by cell based assay; conditions: Orthoflavivirus
Nonstructural protein 3 [12] = target: T1, Nonstructural protein 3; experiment: Allosteric inhibition of Zika virus NS2B-NS3 protease

SMILES: CC[C@H](NC(=O)[C@H](C)NC)C(=O)N1C[C@@H](O)C[C@H]1Cc1c(-c2[nH]c3cc(F)ccc3c2C[C@@H]2C[C@H](O)CN2C(=O)[C@H](CC)NC(=O)[C@H](C)NC)[nH]c2cc(F)ccc12 [BIRINAPANT]
- EC50 (Nonstructural protein 3 [1]): 300 to 600 nM
- IC50 [5]: 200 nM

SMILES: CN[C@@H](C)C(=O)N[C@H](C(=O)N1CC[C@H](C)[C@H]1C(=O)Nc1ccccc1-c1ncccn1)C1CCCCC1
- Ki (Nonstructural protein 3 [2]): 430 nM

SMILES: CN[C@@H](C)C(=O)N[C@H]1CCCC[C@H]2CC[C@@H](C(=O)NC(c3ccccc3)c3ccccc3)N2C1=O
- IC50 (Nonstructural protein 3 [2]): 100 nM

SMILES: C[C@@H]1CN(CC(=O)N2CC(C)(C)c3nc(CO)c(Cc4ccc(F)cc4)cc32)[C@@H](CN2CCOC[C@H]2C)CN1 [ASTX-660]
- Ki (Nonstructural protein 3 [2]): 800 to 8900 nM

SMILES: CN[C@@H](C)C(=O)N[C@H]1CC[C@H]2CC[C@@H](C(=O)NC(c3ccccc3)c3ccccc3)N2C1=O
- Kd (Genome polyprotein [7]): 2000 nM
- IC50 (Genome polyprotein [8]): 1900 nM
- Kd (Nonstructural protein 3 [9]): 2000 nM
- IC50 (Nonstructural protein 3 [2]): 1900 nM

SMILES: Cc1ccc(C(=O)Nc2ccc(S(=O)(=O)O)c3cc(S(=O)(=O)O)cc(S(=O)(=O)O)c23)cc1NC(=O)c1cccc(NC(=O)Nc2cccc(C(=O)Nc3cc(C(=O)Nc4ccc(S(=O)(=O)O)c5cc(S(=O)(=O)O)cc(S(=O)(=O)O)c45)ccc3C)c2)c1 [SURAMIN]
- Kd (Nonstructural protein 3 [1]): 28 µM
- EC50 (Nonstructural protein 3 [9]): 1.93 to 39.8 µM
- IC50 (Nonstructural protein 3 [2]): 47000 nM

SMILES: CC(C)C[C@H]1C(=O)N2CCC[C@H]2[C@]2(O)O[C@](NC(=O)[C@@H]3C=C4c5cccc6[nH]c(Br)c(c56)C[C@H]4N(C)C3)(C(C)C)C(=O)N12 [BROMOCRIPTINE]
- EC50 (Nonstructural protein 3 [1]): 13000 nM
- IC50 (Nonstructural protein 3 [2]): 21600 nM

SMILES: CC(C)[C@H](NC(=O)[C@H](C)N)C(=O)N1CCC[C@H]1C(=O)NCc1ccccc1 (H-Ala-Val-Pro-NHBn)
- Ki (Nonstructural protein 3 [2]): 140 nM

Second part, the compound after the results:

- EC50 (Nonstructural protein 3 [1]): 24800 nM
- IC50 (Nonstructural protein 3 [2]): 14200 nM
SMILES: CO[C@@H]1[C@@H](OC(N)=O)[C@@H](O)[C@H](Oc2ccc3c(O)c(NC(=O)c4ccc(O)c(CC=C(C)C)c4)c(=O)oc3c2C)OC1(C)C [NOVOBIOCIN]

- Kd (Nonstructural protein 3 [3]): 9 µM
- IC50 (Nonstructural protein 3 [4]): 4.1 µM
- Ki (Nonstructural protein 3 [4]): 13.5 µM
SMILES: CN[C@@H](C)C(=O)N[C@H]1CN(C(=O)CC(C)C)CC[C@H]2CC[C@@H](C(=O)NC(c3ccccc3)c3ccccc3)N2C1=O [XEVINAPANT]

- Ki (Nonstructural protein 3 [2]): 92300 nM
SMILES: CCN(CCO)CCCC(C)Nc1ccnc2cc(Cl)ccc12 (stereo unspecified) [HYDROXYCHLOROQUINE]

- EC90 [6]: 0.12 µM
- EC50 (Nonstructural protein 3 [1]): 22 nM
- IC50 (Nonstructural protein 3 [2]): 1100 nM
SMILES: Oc1cccc(-c2c3nc(c(-c4cccc(O)c4)c4ccc([nH]4)c(-c4cccc(O)c4)c4nc(c(-c5cccc(O)c5)c5ccc2[nH]5)CC4)C=C3)c1 [TEMOPORFIN]

- IC50 (Nonstructural protein 3 [2]): 300 nM
SMILES: CN[C@@H](C)C(=O)N[C@H](C(=O)N1CCC[C@H]1C(=O)Nc1sc(-c2ncco2)nc1-c1ccccc1)C1CCCCC1 [GDC-0917]

- Ratio [10]: 2.94 ×10⁶ /M/s
SMILES: CN[C@@H](C)C(=O)N[C@H](C(=O)N1CCC[C@H]1c1nc(C(=O)c2ccc(F)cc2)cs1)C1CCCCC1

- IC50 [5]: 380 nM
- EC50 [11]: 1000 nM
SMILES: C[C@@H]1CN(CC(=O)N2CCCC2)CCN1

- IC50 (Nonstructural protein 3 [12]): 820 nM
SMILES: C[C@@H]1CN(CC(=O)N2CC(C)(C)c3ncc(Cc4ccc(F)cc4)cc32)[C@@H](CN2CCOC[C@H]2C)CN1

- EC50 (Nonstructural protein 3 [1]): 600 nM
- IC50 (Nonstructural protein 3 [2]): 1700 nM
SMILES: O=C1OC2(c3ccccc31)c1cc(I)c(O)c(I)c1Oc1c2cc(I)c(O)c1I [ERYTHROSINE]
